Experimental data: PubChem BioAssay AID1963972 (Molecular Pharmacology Branch, DTP, NCI, 2024)

System: 945468-187-T-J2-PDC spheroids viability
Test: Anticancer human tumor 945468-187-T-J2-PDC patient-derived rectal carcinoma cell line growth inhibition [PI3K]
Details: spheroids with HUVEC and MSC; for IC50: curve of first compound; for viability, T/C: stronger effect = lower value
Summary of the method: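 Complex 3D spheroids (cancer cells + endothelial HUVEC + mesenchymal stem cells); drug pairs of targeted agent x inavolisib/alpelisib/duvelisib/copanlisib; half-log series from ~Cmax, max 10 microM if Cmax unknown; endpoint viability.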

[1] = second compound 0.00316 µM, first compound 0.0316 µM
[2] = second compound 0.00316 µM, first compound 0.1 µM
[3] = second compound 0.00316 µM, first compound 0.316 µM
[4] = second compound 0.00316 µM, first compound 1 µM
[5] = second compound 0.00316 µM, first compound 3.16 µM
[6] = second compound 0.00316 µM, first compound 10 µM
[7] = second compound 0.01 µM, first compound 0.0316 µM
[8] = second compound 0.01 µM, first compound 0.1 µM
[9] = second compound 0.01 µM, first compound 0.316 µM
[10] = second compound 0.01 µM, first compound 1 µM
[11] = second compound 0.01 µM, first compound 3.16 µM
[12] = second compound 0.01 µM, first compound 10 µM
[13] = second compound 0.0316 µM, first compound 0.0316 µM
[14] = second compound 0.0316 µM, first compound 0.1 µM
[15] = second compound 0.0316 µM, first compound 0.316 µM
[16] = second compound 0.0316 µM, first compound 1 µM
[17] = second compound 0.0316 µM, first compound 3.16 µM
[18] = second compound 0.0316 µM, first compound 10 µM
[19] = second compound 0.1 µM, first compound 0.0316 µM
[20] = second compound 0.1 µM, first compound 0.1 µM
[21] = second compound 0.1 µM, first compound 0.316 µM
[22] = second compound 0.1 µM, first compound 1 µM
[23] = second compound 0.1 µM, first compound 3.16 µM
[24] = second compound 0.1 µM, first compound 10 µM
[25] = second compound 0.316 µM, first compound 0.0316 µM
[26] = second compound 0.316 µM, first compound 0.1 µM
[27] = second compound 0.316 µM, first compound 0.316 µM
[28] = second compound 0.316 µM, first compound 1 µM
[29] = second compound 0.316 µM, first compound 3.16 µM
[30] = second compound 0.316 µM, first compound 10 µM
[31] = second compound 1 µM, first compound 0.0316 µM
[32] = second compound 1 µM, first compound 0.1 µM
[33] = second compound 1 µM, first compound 0.316 µM
[34] = second compound 1 µM, first compound 1 µM
[35] = second compound 1 µM, first compound 3.16 µM
[36] = second compound 1 µM, first compound 10 µM
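Further: spheroids exposed to compounds for seven days before reading.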

Q: How did the IC50 (second compound 0.00316 µM) turn out when CC(Cn1ccc(-c2ccc(C#N)c(Cl)c2)n1)NC(=O)c1cc(C(C)O)[nH]n1 (centres undefined) + COc1c(OCCCN2CCOCC2)ccc2c3n(c(=NC(=O)c4cnc(N)nc4)nc12)CCN3 was run?
A: > 10 µM

Q: What about the IC50 (second compound 0.01 µM) of the same compound?
A: > 10 µM

Q: What about the IC50 (second compound 0.0316 µM) of the same compound?
A: > 10 µM

Q: And the IC50 (second compound 0.1 µM)?
A: > 10 µM

Q: What about the IC50 (second compound 0.316 µM) of the same compound?
A: < 0.0316 µM

Q: What about the IC50 (second compound 1 µM) of the same compound?
A: < 0.0316 µM

Q: What about the viability, T/C [1] of the same compound?
A: 85.6%

Q: And the viability, T/C [2]?
A: 112%

Q: And the viability, T/C [3]?
A: 124%

Q: And the viability, T/C [4]?
A: 94.6%

Q: And the viability, T/C [5]?
A: 92.2%

Q: And the viability, T/C [6]?
A: 114%

Q: And the viability, T/C [7]?
A: 91.3%

Q: What about the viability, T/C [8] of the same compound?
A: 104%

Q: And the viability, T/C [9]?
A: 117%

Q: And the viability, T/C [10]?
A: 115%

Q: What about the viability, T/C [11] of the same compound?
A: 105%

Q: What about the viability, T/C [12] of the same compound?
A: 108%

Q: And the viability, T/C [13]?
A: 90.7%

Q: And the viability, T/C [14]?
A: 114%

Q: And the viability, T/C [15]?
A: 113%

Q: What about the viability, T/C [16] of the same compound?
A: 101%

Q: And the viability, T/C [17]?
A: 108%

Q: And the viability, T/C [18]?
A: 89.3%

Q: What about the viability, T/C [19] of the same compound?
A: 79.4%

Q: What about the viability, T/C [20] of the same compound?
A: 95%

Q: And the viability, T/C [21]?
A: 81.5%

Q: What about the viability, T/C [22] of the same compound?
A: 94.3%

Q: What about the viability, T/C [23] of the same compound?
A: 84.8%

Q: What about the viability, T/C [24] of the same compound?
A: 87%

Q: What about the viability, T/C [25] of the same compound?
A: 40.8%

Q: And the viability, T/C [26]?
A: 33.2%

Q: What about the viability, T/C [27] of the same compound?
A: 49%

Q: What about the viability, T/C [28] of the same compound?
A: 39.2%

Q: And the viability, T/C [29]?
A: 42.5%

Q: What about the viability, T/C [30] of the same compound?
A: 48.1%

Q: What about the viability, T/C [31] of the same compound?
A: 21.3%

Q: And the viability, T/C [32]?
A: 23.5%

Q: And the viability, T/C [33]?
A: 22.9%

Q: What about the viability, T/C [34] of the same compound?
A: 22%

Q: What about the viability, T/C [35] of the same compound?
A: 24.3%

Q: What about the viability, T/C [36] of the same compound?
A: 25.2%

Q: With CC1(C)CCC(Nc2ncc(C(F)(F)F)c(-c3c[nH]c4c(P(C)(C)=O)c(C#N)ccc34)n2)CN1 (centres undefined) + COc1c(OCCCN2CCOCC2)ccc2c3n(c(=NC(=O)c4cnc(N)nc4)nc12)CCN3 as the compound, how does the IC50 (second compound 0.00316 µM) read?
A: 0.663 µM

Q: And the IC50 (second compound 0.01 µM)?
A: 0.871 µM

Q: What about the IC50 (second compound 0.0316 µM) of the same compound?
A: 0.745 µM

Q: And the IC50 (second compound 0.1 µM)?
A: 0.663 µM

Q: What about the IC50 (second compound 0.316 µM) of the same compound?
A: < 0.0316 µM

Q: What about the IC50 (second compound 1 µM) of the same compound?
A: < 0.0316 µM

Q: And the viability, T/C [1]?
A: 91%

Q: And the viability, T/C [2]?
A: 86.8%

Q: What about the viability, T/C [3] of the same compound?
A: 66.3%

Q: And the viability, T/C [4]?
A: 40.5%

Q: And the viability, T/C [5]?
A: 32.6%

Q: And the viability, T/C [6]?
A: 27.6%

Q: What about the viability, T/C [7] of the same compound?
A: 92.9%

Q: And the viability, T/C [8]?
A: 89.8%

Q: What about the viability, T/C [9] of the same compound?
A: 76%

Q: What about the viability, T/C [10] of the same compound?
A: 46.8%

Q: And the viability, T/C [11]?
A: 30.2%

Q: And the viability, T/C [12]?
A: 28.7%

Q: And the viability, T/C [13]?
A: 110%

Q: And the viability, T/C [14]?
A: 85%

Q: What about the viability, T/C [15] of the same compound?
A: 69.2%

Q: What about the viability, T/C [16] of the same compound?
A: 38.9%

Q: And the viability, T/C [17]?
A: 37.7%

Q: What about the viability, T/C [18] of the same compound?
A: 25.9%

Q: What about the viability, T/C [19] of the same compound?
A: 86.5%

Q: What about the viability, T/C [20] of the same compound?
A: 88.4%

Q: And the viability, T/C [21]?
A: 62.8%

Q: And the viability, T/C [22]?
A: 43.5%

Q: What about the viability, T/C [23] of the same compound?
A: 37.3%

Q: What about the viability, T/C [24] of the same compound?
A: 31.8%

Q: What about the viability, T/C [25] of the same compound?
A: 42%

Q: What about the viability, T/C [26] of the same compound?
A: 44.3%

Q: And the viability, T/C [27]?
A: 40.2%

Q: What about the viability, T/C [28] of the same compound?
A: 33.8%

Q: What about the viability, T/C [29] of the same compound?
A: 31.2%

Q: And the viability, T/C [30]?
A: 17.2%

Q: And the viability, T/C [31]?
A: 21.3%

Q: And the viability, T/C [32]?
A: 19.5%

Q: And the viability, T/C [33]?
A: 22.8%

Q: What about the viability, T/C [34] of the same compound?
A: 19%

Q: What about the viability, T/C [35] of the same compound?
A: 17.7%

Q: And the viability, T/C [36]?
A: 10.2%
